From article PMC11603362, “Cannabidiol inhibits transient receptor potential canonical 4 and modulates excitability of pyramidal neurons in mPFC” (Frontiers in Pharmacology, 2024)

Target: T1, TRPC4 (Homo sapiens, UniProt Q9UBN4)
T1 construct: human TRPC4a channel
T1 sequence (Q9UBN4 1-977): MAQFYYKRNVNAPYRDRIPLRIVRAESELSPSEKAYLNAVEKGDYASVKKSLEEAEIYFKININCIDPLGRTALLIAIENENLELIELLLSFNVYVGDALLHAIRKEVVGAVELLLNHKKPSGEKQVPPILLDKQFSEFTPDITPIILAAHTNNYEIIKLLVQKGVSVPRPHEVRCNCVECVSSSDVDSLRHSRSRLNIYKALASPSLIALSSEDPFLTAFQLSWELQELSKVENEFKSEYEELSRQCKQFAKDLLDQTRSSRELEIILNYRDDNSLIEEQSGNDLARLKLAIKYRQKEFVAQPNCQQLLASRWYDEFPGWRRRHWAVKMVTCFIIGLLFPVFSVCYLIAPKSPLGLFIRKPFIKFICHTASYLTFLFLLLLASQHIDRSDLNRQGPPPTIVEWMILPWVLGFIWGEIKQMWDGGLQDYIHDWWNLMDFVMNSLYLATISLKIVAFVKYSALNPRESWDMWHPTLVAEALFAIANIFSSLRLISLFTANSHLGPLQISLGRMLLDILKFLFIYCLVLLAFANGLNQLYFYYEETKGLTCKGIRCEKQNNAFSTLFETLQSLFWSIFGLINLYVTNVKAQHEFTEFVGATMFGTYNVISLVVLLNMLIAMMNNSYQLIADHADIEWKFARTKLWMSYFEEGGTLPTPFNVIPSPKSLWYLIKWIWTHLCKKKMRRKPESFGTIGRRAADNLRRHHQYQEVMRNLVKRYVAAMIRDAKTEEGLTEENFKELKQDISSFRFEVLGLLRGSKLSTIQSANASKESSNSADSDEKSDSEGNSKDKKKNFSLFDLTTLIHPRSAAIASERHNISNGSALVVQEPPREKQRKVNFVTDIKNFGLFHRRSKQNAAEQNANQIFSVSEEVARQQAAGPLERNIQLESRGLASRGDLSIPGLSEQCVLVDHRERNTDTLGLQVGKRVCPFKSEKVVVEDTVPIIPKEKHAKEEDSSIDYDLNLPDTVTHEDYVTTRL
Assay: whole-cell patch clamp in HEK293-TRPC4 cells (EA-evoked current); also Ca2+ influx assay
Format: cell-based

C=C(C)[C@@H]1CCC(C)=C[C@H]1c1c(O)cc(CCCCC)cc1O [CBD, Cannabidiol]
IC50: 1520 ± 600 nM
